Series [1] has as its target cathepsin L (Homo sapiens, UniProt P07711). Put plainly: Selectivity: Ki against cathepsin L, substrate Z-FR-AMC. It counts as biochemical. Here is the method:
(§1) Activation buffer used with cathepsin L was 100 mM acetate buffer, pH 5.5 with 0.1 % PEG, 5 mM DTT and 1.5 mM EDTA and with cathepsin H was 100 mM phosphate buffer, pH 6.8 with 0.1 % PEG, 5 mM DTT and 1.5 mM EDTA. Table II. Ki values for 5-nitro-8-hydroxyquinoline determined against cathepsins B, L and H.

Series [2] addresses T1, cathepsin H (Homo sapiens, UniProt P09668).
T1 sequence (P09668 98-335): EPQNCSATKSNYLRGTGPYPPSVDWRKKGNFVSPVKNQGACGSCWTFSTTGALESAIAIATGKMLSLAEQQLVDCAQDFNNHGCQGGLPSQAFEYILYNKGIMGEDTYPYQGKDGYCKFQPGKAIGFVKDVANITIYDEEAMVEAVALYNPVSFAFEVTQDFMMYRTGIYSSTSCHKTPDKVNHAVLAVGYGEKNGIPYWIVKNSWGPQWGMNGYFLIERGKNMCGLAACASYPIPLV
Nature of the series: Selectivity: Ki against cathepsin H, substrate R-AMC. The series is classed as biochemical. Here is the method: as §1

In series [3] the target is T2, Cathepsin B (Homo sapiens, UniProt P07858). Nature of the series: Reversibility with active site probe DCG-04 (labelling, SDS-PAGE, blot). To be noted: 0.1, 1, 10 and 50 µM inhibitor, 1 h, then 2 µM DCG-04. It counts as binding. The text has this:
Second, the reversibility of 5-nitro-8-hydroxyquinoline was also studied with the active site probe DCG-04. DCG-04 is a derivative of an irreversible epoxysuccinic inhibitor of cysteine proteases E-64 with an additional biotin moiety which enables detection of covalently modified proteases with labelling intensity correlating with enzymatic activity (Greenbaum D, Medzihradszky KF, Burlingame A, Bogyo M: Epoxide electrophiles as activity-dependent cysteine protease profiling and discovery tools. Chem Biol 2000, 7: 569-81.). 1 µg of recombinant cathepsin B in 50 mM Tris, pH 5.5 containing 1 mM DTT, 5 mM MgCl2 and 250 mM sucrose was incubated with 0.1, 1, 10 in 50 µM 5-nitro-8-hydroxyquinoline (diluted from 10 mM DMSO stocks) for 1 h at room temperature. Samples were then labelled with 2 µM DCG-04 for an additional h at room temperature. After boiling in reducing sample buffer for 10 min samples were analyzed by 12.5 % SDS-PAGE and transferred to a nitrocellulose membrane. The latter was then blocked with 0.5 % Tween 20 in PBS overnight at 4 °C and incubated with 1 µg/ml streptavidin-horseradish peroxidase in 0.2 % Tween 20 in PBS for 1 h at room temperature. The membrane was washed five times with 0.2 % Tween 20 in PBS and the spots on the membrane were visualized with 0.5 mg/ml 3,3'-diaminobenzidine and 0.0005 % (v/v) H2O2 in 50 mM Tris, pH 7.5. […]

Series [4] addresses T2, Cathepsin B. Put plainly: Reversibility by mass spectrometry (ESI-MS of cathepsin B after incubation and dialysis). The conditions noted are these: equimolar inhibitor, 1 h room temperature, dialysis. It counts as binding. Here is the method:
Third, reversibility of 5-nitro-8-hydroxyquinoline was also checked with mass spectrometry. Cathepsin B (4.4 µM) was activated in the activation buffer for 5 min at 37 °C. Afterwards, an equimolar amount of the inhibitor was added to the enzyme and incubated for 1 h at room temperature. The mixture was dialyzed against water five times using Microcon Centrifugal Filter Devices YM-10 to avoid salt interferences and to remove unbound molecules of the test compound. Samples were then prepared by adding an equal volume of acetonitrile containing 0.1 % formic acid and analyzed with ESI-MS on an AutoSpec Q instrument. As a positive control CA-074 was used.

For series [5], the system named is MCF-10A neoT cells. Nature of the series: MTS cytotoxicity assay. The series is classed as cell-based. The conditions noted are these: 10 µM, 24 h incubation. Here is the method: A MTS assay was used to assess the cytotoxic effect of 5-nitro-8-hydroxyquinoline on MCF-10A neoT cells. 5 × 10^4 cells in 100 µl of medium were added to a single well of a 96-microtiter plate to which a 100 µl of 5-nitro-8-hydroxyquinoline solution (twice the final concentration) was added. After 24 h incubation the cells were washed and the medium was replaced with 100 µl of fresh medium to which a 20 µl of MTS was added. After 2 h incubation the absorbance was measured at 490 nm. The experiment was performed in quadruplicates and DMSO was used as control.
(Tetrazolium assays rely on reduction of a dye to a coloured formazan, in cell work by metabolically active cells.)

Series [6] has as its system MCF-10A neoT cell line. Put plainly: Millicell Matrigel in vitro tumour cell invasion assay. It counts as cell-based. The conditions noted are these: Homo sapiens, 24 h, read-out: inhibition of tumour invasion compared to DMSO control. Here is the method:
To assess the ability of 5-nitro-8-hydroxyquinoline to inhibit tumour cell invasion two independent experiments were used. First, an in vitro invasion model using Millicell Cell culture inserts (12 mm polycarbonate inserts with 12 µm pores) was performed. The bottom sides of 24-wells were coated with 100 µl of fibronectin from bovine plasma (25 µg/ml) and left in a laminar hood to dry. The upper side of Millicell inserts was coated with 100 µl of Matrigel (0.75 mg/ml in serum free medium) and incubated for 1 h at 37 °C. The inserts were then placed in with fibronectin coated wells. The upper compartments of the inserts were filled with 200 µl MCF-10A neoT cell suspension (7.5x10^5/ml) containing 5-nitro-8-hydroxyquinoline (10 µM) in serum free medium and the bottom compartments were filled 500 µl of medium containing 10 µM 5-nitro-8-hydroxyquinoline and 10 % fetal calf serum. After 24 h incubation the bottom sides of wells were washed with 500 µl of PBS and the cells that were attached were detached by 0.05 % trypsin and 0.02 % EDTA in PBS. […] After a 2 h incubation period the absorbance was measured at 490 nm. […] The percentage of cell invasion was calculated as the ratio between the invading cells and the total cell population.

Series [7] deals with MCF-10A neoT cells. Put plainly: Extracellular DQ-collagen IV degradation, fluorescence intensity in medium. The series is classed as cell-based. The conditions noted are these: Homo sapiens, MCF-10A-neoT, 3 h, DQ-collagen IV 5 µg/ml. Here is the method:
Two experiments were set to differentiate between inhibition of intracellular and extracellular DQ-collagen IV degradation. Inhibition of extracellular DQ-collagen IV degradation was observed by monitoring the fluorescence intensity of degraded DQ-collagen IV in the medium in which MCF-10A neoT cells were grown. 5 × 10^4 MCF-10A neoT cells were plated into wells of a 96-well black plate and were allowed to attach over night. Cells were then incubated with 100 µl PBS containing 5-nitro-8-hydroxyquinoline, CA-074 or CA-074Me (10 µM) and DQ-collagen IV (5 µg/ml) for 3 h. Afterwards, the 80 µl of PBS was transferred into the empty wells and the fluorescence intensity was measured at 495 nm ± 5 nm excitation and 515 nm ± 5 nm emission wavelengths on Tecan Safire^2™. The experiment was performed in 8 parallels and DMSO was used as a control.

Chain of cathepsin L (P07711 114-333, species assumed): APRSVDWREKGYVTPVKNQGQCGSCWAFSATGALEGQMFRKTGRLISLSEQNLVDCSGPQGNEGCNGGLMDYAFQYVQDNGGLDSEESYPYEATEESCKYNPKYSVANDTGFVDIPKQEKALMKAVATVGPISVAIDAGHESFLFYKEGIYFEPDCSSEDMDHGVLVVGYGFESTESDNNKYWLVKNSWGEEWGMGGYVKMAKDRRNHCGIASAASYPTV

For orientation: Ki means a dissociation constant, usually derived from enzyme kinetics or from competition with a known ligand. Broadly, the inhibition is the percentage by which the read-out fell short of the control. On to `O=[N+]([O-])c1ccc(O)c2ncccc12` [Compound 1, 5-nitro-8-hydroxyquinoline], for which the Mechanism of inhibition result in series [1] is “competitive”; in series [2], “mixed”. The Ki came to 175 ± 17.1 µM in series [1] (substrate Z-FR-AMC, pH 5.5) and 220.8 ± 2.1 µM in series [2] (substrate R-AMC, pH 6.8). Moreover, the “intensity of spots (DCG-04 labelling) versus DMSO control” value in series [3] is reported as “did not differ significantly from the DMSO control”. Also, the “Molecular weight of cathepsin B after incubation with inhibitor” value in series [4] is reported as “did not alter”. In series [5], the “cytotoxic effect (cell viability, MTS)” value is on record as “non-toxic”. In addition, the results for the inhibition at 10 µM in series [6] and in series [7] were 40.7% and 35.3%, respectively.
